Reference: publication PMC4289246, “Dose-dependent effects of lesogaberan on reflux measures in patients with refractory gastroesophageal reflux disease: a randomized, placebo-controlled study” (BMC Gastroenterology, 2014)
Like-named read-outs stand apart in the source and are kept apart here.

Tests used:
[1] = Plasma pharmacokinetics of lesogaberan during 24-h dosing; format: in vivo, human; details: for AUC(0-t) / Cmax / Tmax: human, oral, plasma; for AUC(0-t): modified-release capsules, read-out: AUC (0–24 h), geometric mean
Protocol: Blood samples were taken 1 h before the first administration of each dose, and at regular intervals during the 24-h period after the first administration of each dose, to assess the concentration of lesogaberan in plasma over time. […]

[2] = system: patients with GERD who have a partial response to PPI therapy; set-up: method as in PMID 20451523; details: 65 mg twice daily, partial responders to PPI therapy; cited from earlier work
[3] = set-up: method as in PMID 21410297; details: approximately; cited from earlier work
[4] = system: patients with GERD who had a partial response to PPI treatment; test: 24-h impedance–pH measurement of reflux variables, crossover vs placebo; format: in vivo, human; details: for Difference in geometric mean, number of reflux episodes in supine position / Difference in geometric mean, number of reflux episodes in upright position / Difference in geometric mean, number of weakly acid reflux episodes / Difference in geometric mean, number of acid reflux episodes / Difference in geometric mean, number of mixed gas/liquid reflux episodes / Difference in geometric mean, number of pure liquid reflux episodes / Difference in geometric mean, proportion of time with esophageal pH < 4 / Difference in geometric mean, proportion of time with intragastric pH < 4 / Difference in geometric mean, proximal extent of reflux (cm) / Difference in geometric mean, total number of reflux episodes: relative to placebo; for Difference in geometric mean, number of weakly acid reflux episodes: pH 4.0–6.5; for Difference in geometric mean, number of weakly acid reflux episodes / Difference in geometric mean, number of acid reflux episodes / Difference in geometric mean, number of mixed gas/liquid reflux episodes / Difference in geometric mean, number of pure liquid reflux episodes / Difference in geometric mean, proportion of time with esophageal pH < 4 / Difference in geometric mean, proportion of time with intragastric pH < 4 / Difference in geometric mean, proximal extent of reflux (cm) / Difference in geometric mean, total number of reflux episodes: upright or supine; for Difference in geometric mean, number of acid reflux episodes: pH < 4
Protocol: This was a randomized, double-blind, placebo-controlled, four-way crossover, phase 2a study. Patients were randomized to receive one of 10 treatment sequences each consisting of placebo and three of the four different lesogaberan doses (30, 90, 120 and 240 mg). These were given on different days, each separated by a 7–28-day washout period. […] Each dose was given twice over a 24-h period in the form of modified-release capsules: one taken 1 h before breakfast after fasting the night before, and the other taken 1 h before dinner. (Note that patients fasted overnight before each study period: no food after 22:00 and no fluids after 24:00.) Treatment with patients’ usual, regular and optimized dose of PPI was continued throughout the study.
Impedance–pH measurements were taken for 24 h after the first administration of each dose using a Sleuth® multichannel intraluminal impedance ambulatory system (Sandhill Scientific, Inc., Highlands Ranch, CO, USA). This device includes a data logger, impedance–pH amplifiers, and a catheter consisting of two antimony pH sensors (calibrated before and after recordings were taken using standard pH 7 and pH 1 buffers) placed 5 cm above and 10 cm below the lower esophageal sphincter (LES) and eight impedance electrodes placed 2, 4, 6, 8, 10, 14, 16 and 18 cm above the LES. The electrodes are paired to measure impedance at 3, 5, 7, 9, 15 and 17 cm above the LES. The position of the LES was located by a manometric recording before the study medication or placebo was given.
(§1) Impedance–pH readings were analysed by one investigator (JP) using dedicated software (BioVIEW Analysis®, version 5.5.4; Sandhill Scientific Inc.) and were then checked manually. This was performed in a blinded manner and the results were used to determine the number of reflux episodes, defined as a period when impedance decreased to less than 50% of baseline (liquid episode) or increased to more than 150% of baseline (gas episode), propagating […] from the most distal channel. Acid, weakly acid and non-acid reflux episodes were defined as episodes lasting longer than 5 s with a pH of < 4, 4.0–6.5 and > 6.5, respectively. The decision to use a cautious cut-off pH of 6.5 was taken in order to ensure that no measurements near to a pH of 7 would be erroneously categorized as weakly acidic. These definitions have previously been employed for studies of this type. During the 24-h period of ambulatory impedance–pH measurement, patients used a data logger and a diary card to record their meal intake and periods in supine position, as well as any GERD symptoms.
The effect of each dose of lesogaberan was measured as the proportional difference, relative to placebo, in the geometric mean of the reflux variables assessed over 24 h. The analysis was based on a mixed-effect model with treatment, period and sequence as fixed effects and patient as a random effect. Geometric means and relative differences in geometric means were reported with 95% CIs. A p value of < 0.05 was considered to indicate statistical significance and no corrections for multiple testing were performed. Multiplicity was accounted for by using a step-down sequential procedure comparing lesogaberan doses with placebo, starting at a 240 mg dose and, in the event of rejection of the null hypothesis, comparison of descending doses.

[5] = system: patients with GERD who had a partial response to PPI treatment; test: GERD symptoms recorded by data logger and diary card during 24-h measurement; format: in vivo, human
Protocol: as §1

[6] = system: patients with a partial response to PPI treatment; set-up: method as in PMID 21402616; details: 65 mg twice daily add-on to PPIs, phase 2a; placebo 8%; cited from earlier work
[7] = 30 mg twice in 24 h, add-on to PPI
[8] = 90 mg twice in 24 h, add-on to PPI
[9] = 120 mg twice in 24 h, add-on to PPI
[10] = 240 mg twice in 24 h, add-on to PPI

NC[C@@H](F)C[PH](=O)O [lesogaberan, (R)-(3-amino-2-fluoropropyl) phosphinic acid]
fraction of peak concentration (Cmax) remaining at the end of the wash-out period ([1]; 7–28-day washout, estimated from half-life): ≤ 0.01% | AUC(0-t) ([1]; 30 mg twice in 24 h, patients): 5.25 µM·h | AUC(0-t) ([1]; 90 mg twice in 24 h, patients): 17.3 µM·h | AUC(0-t) ([1]; 120 mg twice in 24 h, patients): 22.2 µM·h | AUC(0-t) ([1]; 240 mg twice in 24 h, patients): 46.9 µM·h | Cmax ([1]; 30 mg, evening dose, patients, read-out: C max evening, geometric mean): 420 nM | Tmax ([1]; 30 mg, evening dose, patients, read-out: t max evening, geometric mean): 2.2 h | Cmax ([1]; 30 mg, morning dose, patients, read-out: C max morning, geometric mean): 350 nM | Tmax ([1]; 30 mg, morning dose, patients, read-out: t max morning, geometric mean): 1.7 h | Cmax ([1]; 90 mg, evening dose, patients, read-out: C max evening, geometric mean): 1680 nM | Tmax ([1]; 90 mg, evening dose, patients, read-out: t max evening, geometric mean): 1.9 h | Cmax ([1]; 90 mg, morning dose, patients, read-out: C max morning, geometric mean): 1300 nM | Tmax ([1]; 90 mg, morning dose, patients, read-out: t max morning, geometric mean): 1.7 h | Cmax ([1]; 120 mg, evening dose, patients, read-out: C max evening, geometric mean): 2210 nM | Tmax ([1]; 120 mg, evening dose, patients, read-out: t max evening, geometric mean): 1.9 h | Cmax ([1]; 120 mg, morning dose, patients, read-out: C max morning, geometric mean): 1480 nM | Tmax ([1]; 120 mg, morning dose, patients, read-out: t max morning, geometric mean): 1.9 h | Tmax ([1]; 240 mg, all four doses (30, 90, 120, 240 mg), morning and evening, read-out: geometric mean tmax): 1.7 to 2.6 h | Cmax ([1]; 240 mg, evening dose, patients, read-out: C max evening, geometric mean): 4180 nM | Tmax ([1]; 240 mg, evening dose, patients, read-out: t max evening, geometric mean): 2.6 h | Cmax ([1]; 240 mg, morning dose, patients, read-out: C max morning, geometric mean): 3310 nM | Tmax ([1]; 240 mg, morning dose, patients, read-out: t max morning, geometric mean): 1.7 h | reduction in the mean number of total reflux episodes relative to placebo [2]: approximately 35% | pharmacological half-life [3]: 11–13 h | Difference in geometric mean, number of reflux episodes in supine position [4, 7]: -37.3% | Difference in geometric mean, number of reflux episodes in upright position [4, 7]: -25.2% | Difference in geometric mean, number of weakly acid reflux episodes [4, 7]: -28.3% | Difference in geometric mean, number of acid reflux episodes [4, 7]: -34.7% | Difference in geometric mean, number of mixed gas/liquid reflux episodes [4, 7]: -25.0% | Difference in geometric mean, number of pure liquid reflux episodes [4, 7]: -27.9% | Difference in geometric mean, proportion of time with esophageal pH < 4 [4, 7]: -69.8% | Difference in geometric mean, proportion of time with intragastric pH < 4 [4, 7]: +40.4% | Difference in geometric mean, proximal extent of reflux (cm) [4, 7]: -39.1% | Difference in geometric mean, total number of reflux episodes [4, 7]: -26.2% | reduction in the mean number of pure liquid reflux episodes relative to placebo [4, 8]: 53.0% | reduction in the mean number of total reflux episodes relative to placebo [4, 8]: approximately 37% | Difference in geometric mean, number of reflux episodes in supine position [4, 8]: -12.3% | Difference in geometric mean, number of reflux episodes in upright position [4, 8]: -38.4% | Difference in geometric mean, number of weakly acid reflux episodes [4, 8]: -31.4% | Difference in geometric mean, number of acid reflux episodes [4, 8]: -45.5% | Difference in geometric mean, number of mixed gas/liquid reflux episodes [4, 8]: -28.3% | Difference in geometric mean, number of pure liquid reflux episodes [4, 8]: -53.0% | Difference in geometric mean, proportion of time with esophageal pH < 4 [4, 8]: -56.1% | Difference in geometric mean, proportion of time with intragastric pH < 4 [4, 8]: +23.7% | Difference in geometric mean, proximal extent of reflux (cm) [4, 8]: -58.9% | Difference in geometric mean, total number of reflux episodes [4, 8]: -37.0% | reduction in the mean number of pure liquid reflux episodes relative to placebo [4, 9]: 44.1% | Difference in geometric mean, number of reflux episodes in supine position [4, 9]: -31.2% | Difference in geometric mean, number of reflux episodes in upright position [4, 9]: -46.1% | Difference in geometric mean, number of weakly acid reflux episodes [4, 9]: -44.5% | Difference in geometric mean, number of acid reflux episodes [4, 9]: -57.9% | Difference in geometric mean, number of mixed gas/liquid reflux episodes [4, 9]: -42.5% | Difference in geometric mean, number of pure liquid reflux episodes [4, 9]: -44.1% | Difference in geometric mean, proportion of time with esophageal pH < 4 [4, 9]: -65.7% | Difference in geometric mean, proportion of time with intragastric pH < 4 [4, 9]: +3.6% | Difference in geometric mean, proximal extent of reflux (cm) [4, 9]: -66.3% | Difference in geometric mean, total number of reflux episodes [4, 9]: -45.0% | reduction in the mean number of pure liquid reflux episodes relative to placebo [4, 10]: 51.9% | Difference in geometric mean, number of reflux episodes in supine position [4, 10]: -69.1% | Difference in geometric mean, number of reflux episodes in upright position [4, 10]: -50.7% | Difference in geometric mean, number of weakly acid reflux episodes [4, 10]: -45.1% | Difference in geometric mean, number of acid reflux episodes [4, 10]: -57.1% | Difference in geometric mean, number of mixed gas/liquid reflux episodes [4, 10]: -56.7% | Difference in geometric mean, number of pure liquid reflux episodes [4, 10]: -51.9% | Difference in geometric mean, proportion of time with esophageal pH < 4 [4, 10]: -73.0% | Difference in geometric mean, proportion of time with intragastric pH < 4 [4, 10]: +27.7% | Difference in geometric mean, proximal extent of reflux (cm) [4, 10]: -63.3% | Difference in geometric mean, total number of reflux episodes [4, 10]: -52.8% | effect on mean number of pure gas reflux episodes relative to placebo ([4]; 30, 90, 120, 240 mg twice in 24 h, data not shown): No significant effect | effect on mean number of non-acid reflux episodes relative to placebo ([4]; 30, 90, 120, 240 mg twice in 24 h, pH > 6.5, data not shown): No significant effect | reduction relative to placebo in the mean number of reflux episodes, supine position ([4]; highest dose (240 mg) twice in 24 h, add-on to PPI): 69.1% | median number of symptoms reported during dosing ([5]; 30 mg twice in 24 h): 1.0 symptom | median number of symptoms reported during dosing ([5]; 90 mg twice in 24 h): 1.0 symptom | median number of symptoms reported during dosing ([5]; 120 mg twice in 24 h): 0 symptoms | median number of symptoms reported during dosing ([5]; 240 mg twice in 24 h): 0.5 symptoms | proportion of responders (max one 24-h period with heartburn and/or regurgitation of not more than mild intensity during last 7 treatment days) [6]: 16%
